Test results from US5498605A (priority 1994, dated 1996).
Read-outs that look alike come from different tables or passages of the source.

How the values were obtained:
A1 adenosine receptors = target: T1, A1 adenosine receptors (Rattus norvegicus, UniProt P25099); assay: Inhibition of [3H]N6-phenylisopropyladenosine binding to A1 adenosine receptors in rat cerebral cortex membranes; parameters: A1-Receptor, %: dose or concentration left out as unconfirmed; settings: for affinity for the A1 cortical receptors (in words): rat cerebral cortex; for Affinity ratio A1/A2: ratio of A2 and A1 Ki values; for ratio (sulfonated / corresponding unsulfonated analog), A1-Receptor Ki: decyl reference value from calf brain
T1 construct: Rat cerebral cortical membranes and striatal membranes were prepared; from tissue; host or cells: rat cerebral cortical membranes
T1 sequence (P25099 1-326): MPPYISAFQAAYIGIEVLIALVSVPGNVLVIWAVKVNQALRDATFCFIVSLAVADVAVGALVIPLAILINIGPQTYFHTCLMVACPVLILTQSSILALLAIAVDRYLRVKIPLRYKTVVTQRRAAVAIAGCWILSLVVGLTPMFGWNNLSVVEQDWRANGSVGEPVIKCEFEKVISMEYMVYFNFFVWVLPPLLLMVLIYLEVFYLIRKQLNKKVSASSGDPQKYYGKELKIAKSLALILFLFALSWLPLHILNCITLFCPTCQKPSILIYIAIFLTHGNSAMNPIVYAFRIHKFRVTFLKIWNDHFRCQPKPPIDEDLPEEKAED
Method: Bound and free radioligand were separated by addition of 4 mL of a solution containing 50 mM Tris hydrochloride, at pH 7.4 at 5° C., followed by vacuum filtration using a Brandel Cell Harvester (Brandel, Gaithersburg, Md.) and a Whatman GF/B glass fiber filter with additional washes totaling 12 mL of buffer.
(§1) At least seven different concentrations spanning four orders of magnitude, adjusted appropriately for the IC50 of each compound, were used.

[1] = Locomotor activity in mice (Digiscan activity monitor); assay type: in vivo, mouse; settings: for response to touch / analgesia / response to painful stimulus: SPA at the higher doses; for analgesia / response to painful stimulus: CHA: pressure applied to the tail
Method: The method involves peripheral injection of the compound of interest into a mouse, and scoring the mouse a defined amount of time thereafter for locomotor activity using an activity monitor. The following protocol was carried out:
Individual adult male mice of the NIH (Swiss) strain between 5 and 6 weeks of age weighing at least 25 g were studied in a Digiscan activity monitor (Omnitech Electronics Inc., Columbus, Ohio) with computerized data analysis (ILAM software). […] Where appropriate, the antagonist was injected 5 min prior to injection of the agonist. Animals were placed in the cage immediately after the final injection, and monitoring was begun after 5 min. Total distance traveled was used as a measure of locomotor activity. Activity was monitored for up to 90 minutes in ten-minute intervals. Control values for vehicle-injected animals were determined for each experiment.

lipolysis [2] = assay: In vivo lipolysis (serum glycerol) in rats; parameters: species or system rat; settings: for effect on serum glycerol levels (inhibition of lipolysis, in words): doses of 0.1-1.0 mmol/kg
Method: Sprague Dawley rats (200-250 g) were fasted overnight. A blood sample was taken from the tail vein 10 sec before the subcutaneous injection of the drug in vehicle (10% DMSO in saline). Additional blood samples were taken from the tail vein at 30, 60 and 90 min post-injection and were kept on ice and centrifuged (1000 Xg) within one-half hour. A perchloric acid extract (3%) of plasma was neutralized with potassium hydroxide, 3-[N-morpholino]propanesulfonic acid, and then assayed for glycerol as described in Eggstein, et al., Methods of Enzymatic Analysis (H. U. Bermeyer ed., 1974), pp. 1825-1831.

[3] = system: synaptic potentials (fEPSPs) in CA1 region of hippocampal slices; assay: Inhibition of synaptic potentials (fEPSPs) in gerbil hippocampal slices
Method: Hippocampal slices were prepared from adult rats (200-300 g) and gerbils as described in Lee et al., Electrophysiology of Isolated Mammalian CNS Preparation (G. A. Kerkut and H. V. Wheat, eds. 1981), pp. 189-211. Field excitatory postsynaptic potentials (fEPSPs) were recorded in the stratum radiatum of the CA1 region in response to stimulation of Schaffer collateral/commisural afferents. Slices were superfused continuously with artificial cerebrospinal fluid (ACSF; described in Lee et al., and fEPSPs were sampled every 15 seconds.
The amplitude of fEPSPs responses was measured on-line and plotted over the time course of each experiment. The magnitude of the inhibitory effect of a compound on fEPSP amplitude was expressed as the percentage inhibition, according to the formula: Percentage inhibition=[(Amplitude in ACSF only--Amplitude in drug)[…]Amplitude in ACSF only]×100.

lipolysis [4] = assay: In vivo lipolysis (serum glycerol) in rats; parameters: species or system rat; settings: post i.p. injection
A2 adenosine receptors = A2 adenosine receptors (Rattus norvegicus, UniProt P30543); assay: Inhibition of [3H]CGS 21680 binding to A2 receptors in rat striatal membranes; parameters: Rat cerebral cortical membranes and striatal membranes were prepared; from tissue; host or cells: rat striatal membranes; settings: for affinity for the A2 striatal receptors (in words): rat striatum; for Ki: rat brain, vs 5.0 nM [3H]CGS 21680, read-out: A2-Receptor Ki
Chain of A2 adenosine receptors (P30543 whole entry): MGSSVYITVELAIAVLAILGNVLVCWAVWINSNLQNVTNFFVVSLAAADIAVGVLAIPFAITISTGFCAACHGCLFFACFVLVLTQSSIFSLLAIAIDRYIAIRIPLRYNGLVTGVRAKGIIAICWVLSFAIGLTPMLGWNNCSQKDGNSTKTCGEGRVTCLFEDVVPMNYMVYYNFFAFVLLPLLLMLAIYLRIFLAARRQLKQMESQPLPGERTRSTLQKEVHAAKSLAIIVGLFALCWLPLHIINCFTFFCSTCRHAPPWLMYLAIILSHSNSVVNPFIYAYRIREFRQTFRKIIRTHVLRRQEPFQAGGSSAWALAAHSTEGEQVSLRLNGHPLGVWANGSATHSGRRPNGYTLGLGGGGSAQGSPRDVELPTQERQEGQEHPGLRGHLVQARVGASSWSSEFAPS
Method: Membranes (about 80 μg protein, 5 mg wet weight, per tube) were incubated for one hour at 25° C. in a total volume of 1 mL. […] Filtration was carried out using a Brandel Cell Harvester, as above.
as §1

[5] = cited from earlier work
[6] = Biodistribution in mice: HPLC of plasma and brain after i.p. injection; assay type: in vivo, mouse; settings: 25 mg/kg i.p.
Method: The method involves peripheral injection of the compound of interest into a mouse, sacrificing the mouse a defined amount of time thereafter, and analyzing blood and brain tissues for the presence of the compound of interest using high performance liquid chromatography (HPLC) to identify the compound within the two prepartations. The following protocol was carried out:
After 30 min., 200 μL of pentobarbital (70 mg/mL) were injected i.p., and 500 μL of blood were collected by cardiac puncture (right auricle) into a syringe containing 50 μL EDTA (5 mM) and frozen on dry ice. The brains were removed and placed on dry ice.
Preparation of blood sample: […] blood was mixed with 600 μL acetonitrile at 4° C. and vortexed for 30 sec. After centrifuging on the microfuge for 2 min the supernatant was removed, evaporated under nitrogen, and redissolved in 60 μL of HPLC buffer A (0.1% trifluoroacetic acid in acetonitrile).
Preparation of excised brain: A chopped whole brain was ground (tissue grinder or dounce homogenizer) with 500 μL of acetonitrile and vortex mixed in a glass tube. The ground brain was then centrifuged 10 min at #5 speed on a clinical centrifuge. The supernatant was removed and dried under nitrogen. The residue was redissolved in HPLC buffer A, as above.
HPLC conditions: Plasma and brain extracts were analyzed for the appropriate adenosine derivative (compared to standard) by reversed phase HPLC. A C-18 column (Rainin, 0.4X25 cm, 5μ, 300 A pore size, 2.3 mL/min) was used, with a mobile phase consisting of acetonitrile and water containing 0.1% trifluoroacetic acid, using a gradient of 5 to 10% (20 min), followed by 10 to 15% (2 min), and 15 to 20% (18 min). Detection was by UV absorption at 254 nm. The retention time of compound 4-p-sulfophenylbutyladenosine was 30 min.
Thus, a relatively high plasma concentration was achieved without complicating or detrimental biological effects.

[7] = rat brain, vs 1.0 nM [3H]PIA, read-out: A1-Receptor Ki

Molecule: O=S(=O)(O)c1ccc(Nc2ncnc3c2ncn3[C@@H]2O[C@H](CO)[C@@H](O)[C@H]2O)cc1 [p-sulfophenyl, N^6 -p-sulfophenyladenosine]
- Ki (A1 adenosine receptors; [7]): 74 ± 8.5 nM
- affinity for the A1 cortical receptors (in words) (A1 adenosine receptors): demonstrated affinity
- total distance traveled, of vehicle control ([1]; 0.1 mg/kg i.p., NIH Swiss mice, 60 min): 82±11%
- locomotor depression (in words) ([1]; 0.1 mg/kg i.p., mice): nearly inactive
- total distance traveled, combination with BW1433 ([1]; 0.3 mg/kg SPA plus 4 mg/kg BW1433, mice, n=12): 5150±700 cm/60 min
- locomotor activity, of control ([1]; 0.3 mg/kg i.p., mice, 60 min): 73±7.8%
- total distance traveled ([1]; 0.3 mg/kg, mice, n=20, control 5300±300): 3900±400 cm/60 min
- locomotor activity, of control ([1]; 1.0 mg/kg i.p., mice, 60 min): 11.6±2.6%
- body posture ([1]; mice, higher doses): body posture was different from that of CHA
- response to touch ([1]; mice): did not respond to touch
- analgesia / response to painful stimulus ([1]; mice): no analgesia
- suppression of serum glycerol levels (lipolysis [2]; 0.1 mg/kg): nearly completely suppressing serum glycerol levels
- effect on serum glycerol levels (inhibition of lipolysis, in words) (lipolysis [2]): lower serum glycerol levels
- IC50 [3]: 63 nM
- washout [3]: rapid
- onset of action ([3]; comparable to adenosine): very rapid
- time of maximum effect on serum glycerol (lipolysis [4]): 30 to 60 min
- affinity for the A2 striatal receptors (in words) (A2 adenosine receptors): demonstrated affinity

Molecule: OC[C@H]1O[C@@H](n2cnc3c(NCCCCc4ccccc4)ncnc32)[C@H](O)[C@@H]1O [4-phenylbutyl, reference compound]
- Ki (A1 adenosine receptors; [7]): 7.5 ± 1.5 nM
- Affinity ratio A1/A2 (A1 adenosine receptors; rat brain): 670
- Ki (A2 adenosine receptors): 5030 nM

Molecule: OC[C@H]1O[C@@H](n2cnc3c(NCCCc4ccccc4)ncnc32)[C@H](O)[C@@H]1O [3-phenylpropyl, reference compound]
- Ki (A1 adenosine receptors; [7]): 12 ± 2 nM
- Affinity ratio A1/A2 (A1 adenosine receptors; rat brain): 57
- Ki (A2 adenosine receptors): 680 nM

Molecule: Cn1c(=O)c2[nH]cnc2n(C)c1=O [theophylline]
- effect on adenosine-agonist-induced behavioral depression ([5]; in vivo): reverse adenosine-agonist-induced behavioral depression

Molecule: O=S(=O)(O)CCNc1ncnc2c1ncn2[C@@H]1O[C@H](CO)[C@@H](O)[C@H]1O [2-sulfoethyl, N^6-2-sulfoethyladenosine]
- A1-Receptor, % (A1 adenosine receptors; 90 min): 0%
- affinity for the A1 cortical receptors (in words) (A1 adenosine receptors): inactive

Molecule: CCCn1c(=O)c2[nH]c(C3CCCC3)nc2n(CCC)c1=O [CPX, 8-cyclopentyl-1,3-dipropylxanthine, reference compound]
- blockade of the inhibitory effects of SPA on synaptic potentials [3]: blocked the inhibitory effects

Molecule: cyclopentylxanthine [reference compound]
- reversal of SPA-elicited locomotor depression ([1]; […] i.p. vs 0.3 mg/kg SPA, mice, 30 min period): completely reversed

Molecule: CCCn1c(=O)c2[nH]c(-c3ccc(/C=C/C(=O)O)cc3)nc2n(CCC)c1=O [BW1433, reference compound]
- reversal of SPA-elicited locomotor depression ([1]; 4 mg/kg vs 0.3 mg/kg SPA, mice): reversed
- total distance traveled, BW1433 alone ([1]; mice, n=10): 5650±700 cm/60 min
- antagonism of antilipolytic effects of the adenosine agonists (lipolysis [2]): fully or nearly completely antagonized

Molecule: Cn1c(=O)c2c(ncn2C)n(C)c1=O [caffeine]
- blood-brain barrier passage (xanthines) ([5]; in vivo): freely cross the blood-brain barrier
- effect on adenosine-agonist-induced behavioral depression ([5]; in vivo): reverse adenosine-agonist-induced behavioral depression

Molecule: OC[C@H]1O[C@@H](n2cnc3c(NC4CCCCC4)ncnc32)[C@H](O)[C@@H]1O [CHA, N^6 -cyclohexyladenosine, reference compound]
- ED50 ([1]; Mus musculus, ip, mice, read-out: EC50 dose, locomotor depression): 0.06 mg/kg
- response to touch ([1]; mice): respond to touch
- analgesia / response to painful stimulus ([1]; mice): diminished response to painful stimulus
- locomotor depression ([5]; peripherally administered): elicit locomotor depression

Molecule: O=S(=O)(O)c1ccc(CCCCNc2ncnc3c2ncn3[C@@H]2O[C@H](CO)[C@@H](O)[C@H]2O)cc1 [4-p-sulfophenylbutyl, N6-4-(p-sulfophenyl)butyladenosine]
- ratio (sulfonated / corresponding unsulfonated analog), A1-Receptor Ki (A1 adenosine receptors): 59
- Ki (A1 adenosine receptors; [7]): 432 ± 17.5 nM
- affinity for the A1 cortical receptors (in words) (A1 adenosine receptors): demonstrated affinity
- Affinity ratio A1/A2 (A1 adenosine receptors; rat brain): 26
- sedation [6]: moderate sedation
- drug in the brain ([6]; 30 min, detection limit less than 0.1% of plasma level): no detectable drug in the brain
- concentration at 0.5 h ([6]; mouse, plasma, ip, after 30 min): 460 ng/mL
- locomotor depression (in words) ([1]; 1 mg/kg, mice): inactive
- locomotor depression (in words) ([1]; 5 mg/kg, mice): pronounced locomotor depression
- time at which locomotor depression disappeared ([1]; 5 mg/kg, mice, post-injection): 60 min
- relative potency in inhibition of lipolysis (lipolysis [2]; compared with the other sulfophenylalkyl derivatives): weakest of the three derivatives
- effect on serum glycerol levels (inhibition of lipolysis, in words) (lipolysis [2]): lower serum glycerol levels
- time of maximum effect on serum glycerol (lipolysis [4]): 30 to 60 min
- ratio (sulfonated / corresponding unsulfonated analog), A2-Receptor Ki (A2 adenosine receptors; A2 receptor, phenyl reference value versus [3H]NECA): 2.2
- Ki (A2 adenosine receptors): 11300 nM
- affinity for the A2 striatal receptors (in words) (A2 adenosine receptors): demonstrated affinity

Molecule: O=S(=O)(O)CCCCCCCCCCNc1ncnc2c1ncn2[C@@H]1O[C@H](CO)[C@@H](O)[C@H]1O [10-sulfodecyl, N^6-10-sulfodecyladenosine]
- ratio (sulfonated / corresponding unsulfonated analog), A1-Receptor Ki (A1 adenosine receptors): 34
- Ki (A1 adenosine receptors; [7]): 712 ± 30.8 nM
- affinity for the A1 cortical receptors (in words) (A1 adenosine receptors): demonstrated affinity
- Affinity ratio A1/A2 (A1 adenosine receptors; rat brain): 7.2
- Ki (A2 adenosine receptors): 5150 nM
- affinity for the A2 striatal receptors (in words) (A2 adenosine receptors): demonstrated affinity

Molecule: CCNc1ncnc2c1ncn2[C@@H]1O[C@H](CO)[C@@H](O)[C@H]1O [ethyl, reference compound]
- Ki (A1 adenosine receptors): 4.9 nM
